Measured values reported in paper PMC10883907, “Phage-display reveals interaction of lipocalin allergen Can f 1 with a peptide resembling the antigen binding region of a human γδT-cell receptor” (Biological Chemistry, 2020).

Biological target: Can f 1 (Canis lupus, UniProt O18873)
Experiment: fluorescence titration (excitation […] nm, emission […] nm)
Assay type: binding

Can f 1, sequence (O18873 19-174): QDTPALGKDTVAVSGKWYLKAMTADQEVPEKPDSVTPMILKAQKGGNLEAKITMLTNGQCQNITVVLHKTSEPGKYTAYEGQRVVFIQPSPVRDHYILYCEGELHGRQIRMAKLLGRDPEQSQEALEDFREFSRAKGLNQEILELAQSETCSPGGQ

Kd: 2100 nM
SMILES: O=S(=O)(O)c1cccc2cccc(Nc3ccccc3)c12 [ANS, 8-anilinonaphthalene-1-sulfonic acid]
